# Measurements taken from paper PMC8097242, “Galectin-4 N-Terminal Domain: Binding Preferences Toward A and B Antigens With Different Peripheral Core Presentations” (Frontiers in Chemistry, 2021).
# What was measured:
# Format in all cases: binding
# [1] = target: T1, N-terminal CRD of hGalectin-4 (Gal-4N) (Homo sapiens, UniProt P56470); test: 1H Saturation Transfer Difference (STD) NMR epitope mapping
# T1 construct: N-terminal CRD of hGalectin-4 (amino acids 1–150, including an additional C-terminus His-Tag); His-Tag (C, cleaved yes); made in house; host or cells: E. coli BL21 (pET29b)
# T1 sequence (P56470 1-150): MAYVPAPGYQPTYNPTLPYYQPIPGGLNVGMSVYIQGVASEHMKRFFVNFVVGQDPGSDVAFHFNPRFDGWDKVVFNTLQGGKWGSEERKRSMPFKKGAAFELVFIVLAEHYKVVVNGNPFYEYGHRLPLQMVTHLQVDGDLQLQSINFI
# Method: ^1H-saturation transfer difference NMR spectra were acquired for mixtures of Gal-4N (50 μM) with a 50-fold excess of ligand. Protein aromatic irradiation afforded the best STD intensities and thus these are discussed henceforth. The STD NMR spectra were very similar among the different ligands with respect to both the observed glycan protons and their intensities. […] Severe proton overlapping precluded a full comparison among ligands, but key isolated ^1H NMR resonance signals permitted to highlight evident differences.
# All the STD NMR experiments were performed using an 800 MHz Bruker spectrometer with a cryoprobe (Bruker, Billerica, MA, United States). The samples were prepared in the corresponding deuterated buffer. The temperature was 288 K for every experiment. An amount of 50 μM of the lectin with 50 equivalents of the ligand was employed for every experiment except for lactose, for which a 1:70 ratio was used. The STD spectra were acquired with 1,024 scans, 2 s of saturation time using a train of 50 ms Gaussian-shaped pulses, and 3 s of relaxation delay. The spin-lock filter applied to remove the signals of the lectin was set at 40 ms. The on-resonance frequency was set for the aromatic region at 6.58 ppm, while the off-resonance frequency was set at 100 ppm.
# Supplementary Table S1. Relative STD-AF (Amplification factor) and STD percentage of each non overlapping proton of each ligand.
# [2] = target: T1, N-terminal CRD of hGalectin-4 (Gal-4N); test: 1H-15N HSQC NMR-based titrations (chemical shift perturbation) of 15N-labeled Gal-4N; conditions: for Kd: HSQC NMR-based titration, 50 μM 15N-labeled lectin, 298 K, read-out: KD (μM) (NMR)
# Method: The molecular recognition event was also analyzed from the perspective of the lectin. Thus, a chemical shift perturbation (CSP) analysis of the changes produced in the ^1H-^15N HSQC spectra recorded for ^15N-labeled Gal-4N upon addition of the different ligands was carried out. This analysis required the NH backbone NMR assignment of the lectin signals, following well-established triple resonance 3D NMR methods (see Materials and methods and Supplementary Information). The assignment protocol allowed assigning 80% of the NH backbone resonances. In addition to the ligands shown in Scheme 1, the corresponding non-fucosylated analogs and the H antigens (devoid of the terminal Gal/GalNAc moieties, see Supplementary Information), as well as lactose, were also employed. Thus, a full comparative analysis on the monosaccharide-specific effects on the lectin CSP was achieved.
# The total volume for the NMR samples was 500/μl. The lectin was in phosphate-buffered saline (50 mM sodium phosphate, 150 mM NaCl, pH 7.4), either in D2O or 90:10 H2O:D2O depending on the NMR experiment. The pH was adjusted with the required amount of NaOH and HCl or NaOD and DCl.
# experiments were acquired using an 800 MHz Bruker spectrometer with a cryoprobe (Bruker, Billerica, MA, United States). The samples were prepared using 50 μM of the ^15N-labeled lectin in the corresponding buffer in a 90:10 H2O:D2O ratio. The experiments were performed at 298 K. Six to nine points were recorded for each ligand and CSP and KD were calculated using CcpNmr Analysis 2.4.2.
# [3] = target: T1, N-terminal CRD of hGalectin-4 (Gal-4N); test: Isothermal titration calorimetry (ITC); conditions: for Kd: PBS pH 7.4, single binding site model
# Method: Isothermal titration calorimetry experiments were performed using the MicroCal PEAQ-ITC calorimeter (Malvern Panalytical, Malvern, United Kingdom). Samples containing 100–200 μM of Gal-4N in PBS (50 mM sodium phosphate, pH 7.4, 300 mM NaCl) were titrated with stocks of 3–10 mM in PBS of glycans 4, 5, 7, 8, 9, and 11. During the automated experiment, small aliquots (2–3 μL) of the sugar stocks were added to the cell containing the lectin. Curve fitting to a single binding site model was performed with the MicroCal Origin 7 software.
# Isothermal titratrion calorimetry (ITC). Isothermal Titration Calorimetry experiments were performed using MicroCal PEAQ-ITC calorimeter. Samples containing 100-200 µM of Gal-4N in PBS (50 mM sodium phosphate pH 7.4, 300 mM NaCl) were titrated with stocks of 3-10 mM in PBS of glycans A type 1, A type 2, A type 6, B type 1, B type 2 and B type 6. During the automated experiment, small aliquots (2-3 µL) of the sugar stocks were added to the cell containing the lectin. The association constants and the thermodynamic profile of the binding was calculated from the fitting of the titration data to a single binding site model.
STD% ([1]; 1H-residue H1 Fuc) [%],STD-AF ([1]; 1H-residue H1 Fuc),STD% ([1]; 1H-residue H1Galα) [%],STD-AF ([1]; 1H-residue H1Galα),STD% ([1]; 1H-residue H1Galβ) [%],STD-AF ([1]; 1H-residue H1Galβ),STD% ([1]; 1H-residue H3Galβ) [%],STD-AF ([1]; 1H-residue H3Galβ),STD% ([1]; 1H-residue H4Galβ) [%],STD-AF ([1]; 1H-residue H4Galβ),STD% ([1]; 1H-residue H5Galβ) [%],STD-AF ([1]; 1H-residue H5Galβ),STD% ([1]; 1H-residue MetFuc) [%],STD-AF ([1]; 1H-residue MetFuc),Kd [2] [µM],-TΔS (kcal mol^–1) (ITC) [3],ΔG (kcal mol^–1) (ITC) [3],ΔH (kcal mol^–1) (ITC) [3],Kd [3] [µM],SMILES,also measured
28,0.0105,74,0.0276,80,0.0298,29,0.0108,82,0.0307,100,0.0374,20,0.0074,60,6.4,−5.9,−12.3,51,CC1OC(OC2C(OC3C(CO)OC(O)C(O)C3O)OC(CO)C(O)C2OC2OC(CO)C(O)C(O)C2O)C(O)C(O)C1O (stereo not shown) [B type-6 (tetra)],"STD% ([1]; 1H-residue H2Galα): 38%; STD-AF ([1]; 1H-residue H2Galα): 0.0142; STD% ([1]; 1H-residue H2Galβ): 34%; STD-AF ([1]; 1H-residue H2Galβ): 0.0129; STD% ([1]; 1H-residue H2Glca / H2Glcα): 39%; STD-AF ([1]; 1H-residue H2Glca / H2Glcα): 0.0146; STD% ([1]; 1H-residue H2Glcb / H2Glcβ): 36%; STD-AF ([1]; 1H-residue H2Glcb / H2Glcβ): 0.0135; STD% ([1]; 1H-residue H3Glcb / H3Glcβ): 46%; STD-AF ([1]; 1H-residue H3Glcb / H3Glcβ): 0.0172; STD% ([1]; 1H-residue H5Glcβ): 44%; STD-AF ([1]; 1H-residue H5Glcβ): 0.0163; fold range of NMR-based binding affinities, best vs worse binder ([2]; B-type 6 vs A-type 4): 20 fold; binding enthalpy [3]: -12.3 kcal/mol; increased affinity of type-6 vs corresponding type-2 antigen ([3]; Glc vs GlcNAc at reducing end, β1–4 linked): two-fold; fold difference in affinity of the best binder ([3]; among tetrasaccharides of Figure 6 (ITC)): 5 fold"
16,0.0024,73,0.0108,59,0.0088,36,0.0054,55,0.0081,100,0.0148,16,0.0023,190,3.8,−5.5,−9.3,88,CC(=O)NC1C(O)OC(CO)C(OC2OC(CO)C(O)C(OC3OC(CO)C(O)C(O)C3O)C2OC2OC(C)C(O)C(O)C2O)C1O (stereo not shown) [B type-2 (tetra)],STD% ([1]; 1H-residue H1GlcNAc): 24%; STD-AF ([1]; 1H-residue H1GlcNAc): 0.0035; STD% ([1]; 1H-residue H3GlcNAc): 36%; STD-AF ([1]; 1H-residue H3GlcNAc): 0.0054; STD% ([1]; 1H-residue H4Galα): 18%; STD-AF ([1]; 1H-residue H4Galα): 0.0027; STD-AF ([1]; 1H-residue NHAcGlcNAc (B type 1: first of two lines)): 0.0035
